Values joined by “and” are separate entries in the source; they are usually repeats but may differ in a detail not shown here. Equal entries are not always repeated.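 48-hour exposure; five concentrations; linearly interpolated endpoints. The concentration for 50% growth inhibition is given as GI50. The concentration for full growth arrest is given as TGI.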
How the values were obtained:
Experiment in all cases: NCI-60 cell line screen, 48 h
MOLT-4 leukemia = tested on: MOLT-4 leukemia
SK-MEL-28 melanoma = tested on: SK-MEL-28 melanoma
TK-10 renal = tested on: TK-10 renal
SK-OV-3 ovarian = tested on: SK-OV-3 ovarian
KM12 colon = tested on: KM12 colon
HCC-2998 colon = tested on: HCC-2998 colon
LOX IMVI melanoma = tested on: LOX IMVI melanoma
U251 CNS = tested on: U251 CNS
COLO 205 colon = tested on: COLO 205 colon
SNB-75 CNS = tested on: SNB-75 CNS

Compound | GI50 (MOLT-4 leukemia) | TGI (MOLT-4 leukemia) | GI50 (SK-MEL-28 melanoma) | TGI (SK-MEL-28 melanoma) | GI50 (TK-10 renal) | TGI (TK-10 renal) | GI50 (SK-OV-3 ovarian) | TGI (SK-OV-3 ovarian) | GI50 (KM12 colon) | TGI (KM12 colon) | GI50 (HCC-2998 colon) | TGI (HCC-2998 colon) | GI50 (LOX IMVI melanoma) | TGI (LOX IMVI melanoma) | GI50 (U251 CNS) | TGI (U251 CNS) | GI50 (COLO 205 colon) | TGI (COLO 205 colon) | GI50 (SNB-75 CNS) | TGI (SNB-75 CNS)
Cc1cc(O)c(C2=NN(c3ccc(S(N)(=O)=O)cc3)C(/C=C/c3ccccc3)C2)cc1Cl (centres undefined) | 17.7 µM | 73.7 µM | 10.9 µM | 23.8 µM | 14.8 µM | 29.9 µM | 5.52 µM | 17.9 µM | 11.7 µM | 34.8 µM | 9.89 µM | 30.3 µM | 3.94 µM | 16.2 µM | 3.79 µM | 15.6 µM | 10.4 µM | 22.1 µM | 3.39 µM | 16.1 µM
Cc1nc2ccccc2nc1N=Nc1ccccc1 | 14.9 µM | 43.2 µM | 26 µM | > 100 µM | 48.8 µM | > 100 µM | 34.9 µM | > 100 µM | 11.9 µM | 93.5 µM | 37 µM | > 100 µM | 23.3 µM | > 100 µM | 35.9 µM | > 100 µM | 0.291 µM | 1.91 µM | 18.3 µM | > 100 µM
c1ccc(OCc2nnc3n2N=C(c2ccccc2)CS3)cc1 | – | > 100 µM | – | > 100 µM | – | > 100 µM | – | > 100 µM | – | > 100 µM | – | > 100 µM | – | > 100 µM | – | > 100 µM | – | – | – | 95.1 µM
C/C(=N\NC(=S)N1CCCCCC1)c1cccc2cccnc12 | – | > 100 µM | – | > 66.4 µM | – | > 100 µM | – | > 81.5 µM | – | > 87.4 µM | – | > 100 µM | – | 27.1 µM | – | > 29.2 µM | – | 12.3 µM | – | > 91.6 µM
CCCCCCNCc1cc(C(C)(C)C)cc(CNCCCCCC)c1O | 1.84 µM | 3.84 µM | 1.83 µM | 3.27 µM | 1.86 µM | 3.3 µM | – | – | 1.82 µM | 3.3 µM | 1.62 µM | 2.99 µM | 1.58 µM | 2.94 µM | 1.57 µM | 2.91 µM | 1.67 µM | 3.07 µM | 1.44 µM | 2.92 µM
COc1cc2ccnc3c(=C(SC)SC)c(=O)c(c1OC)c23 | – | 23.8 µM | – | 26 µM | – | 27.1 µM | – | > 100 µM | – | 53.5 µM | – | 32.6 µM | – | 10.7 µM | – | > 100 µM | – | 10.5 µM | – | 21.8 µM
CN1CCN(c2nc(-c3csc(-c4cccs4)n3)cc3ccccc23)CC1 | 2.03 µM | 4.15 µM | 1.77 µM | 3.24 µM | 1.98 µM | 3.65 µM | – | – | 1.84 µM | 3.39 µM | 1.72 µM | 3.4 µM | 1.78 µM | 3.22 µM | 1.66 µM | 3.29 µM | – | – | 1.36 µM | 2.91 µM
Cc1c2c(c(C)c3c1[nH]c1ccccc13)CN(C)CC2 | – | > 100 µM | – | 36.2 µM | – | 51.1 µM | – | 70.1 µM | – | 33.9 µM | – | 31.2 µM | – | 29.3 µM | – | 26 µM | – | 28.6 µM | – | 28.8 µM
CC(=O)OC1=CC2(OC(C)=O)CC(C)(C)C1C1C(=O)C=CC(=O)C12 (centres undefined) | – | > 100 µM | – | > 100 µM | – | > 100 µM | – | > 100 µM | – | > 100 µM | – | > 100 µM | – | > 56.1 µM | – | > 100 µM | – | > 65.7 µM | – | > 100 µM
CCC(C)C(=O)OCC(=O)c1ccc(-c2ccccc2)cc1 (centres undefined) | – | > 100 µM | – | > 100 µM | – | > 100 µM | – | > 100 µM | – | > 100 µM | – | > 100 µM | – | > 100 µM | – | > 100 µM | – | > 100 µM | – | > 100 µM
CC(=O)/C=C/c1ccc(OCc2ccc(Cl)cc2)cc1 | 240 µM | > 1000 µM | 400 µM | > 1000 µM | 827 µM | > 1000 µM | > 1000 µM | > 1000 µM | 513 µM | > 1000 µM | 473 µM | > 1000 µM | 343 µM | > 1000 µM | > 1000 µM | > 1000 µM | 287 µM | > 1000 µM | 457 µM | > 1000 µM
CCC1(CN(C)C)CC/C(=C\c2ccc(OC)c(OC)c2)C1=O (centres undefined) | – | > 100 µM | – | > 100 µM | – | > 100 µM | – | > 100 µM | – | > 100 µM | – | > 100 µM | – | > 100 µM | – | > 100 µM | – | > 100 µM | – | > 100 µM
CN(CCCCCl)P(=O)(OCc1ccc([N+](=O)[O-])o1)OCC1OC(n2cnc([N+](=O)[O-])c2N)C(O)C1O (centres undefined) | > 100 µM | > 100 µM | > 100 µM | > 100 µM | > 100 µM | > 100 µM | > 100 µM | > 100 µM | 90.7 µM | > 100 µM | > 100 µM | > 100 µM | > 100 µM | > 100 µM | > 100 µM | > 100 µM | > 100 µM | > 100 µM | > 100 µM | > 100 µM
Cc1ccc(NC(=O)CCc2n[nH]c(=S)o2)cc1 | – | > 100 µM | – | > 100 µM | – | > 100 µM | – | – | – | > 100 µM | – | > 100 µM | – | > 100 µM | – | > 100 µM | – | > 100 µM | – | > 100 µM
CC1OC(CC(=O)O)CC2=C1C(=O)c1c(O)cccc1C2=O (centres undefined) | – | 0.115 µM | – | 0.2 µM | – | 1.82 µM | – | 12.7 µM | – | 3.49 µM | – | 1.69 µM | – | 0.111 µM | – | 2.38 µM | – | 0.169 µM | – | 2.86 µM
CCc1nc(N)nc(N)c1-c1ccc(Cl)c(N=[N+]=[N-])c1 | 2.82 µM and 6.62 µM | 26.8 µM and 71.1 µM | – | > 87.7 µM and 60.5 µM | 8.78 µM and 29.3 µM | > 100 µM | – | > 100 µM | – | 73.1 µM and > 100 µM | – | 23 µM and 30.8 µM | – | > 100 µM and 67.7 µM | – | > 100 µM | – | 23.3 µM and 26.1 µM | – | > 87.3 µM
NC1(Cc2ccc(Cl)cc2)CCN(c2ncnc3[nH]ccc23)CC1 | 1.91 µM | 17.3 µM | 6.63 µM | 19.8 µM | 3.17 µM | 14.8 µM | 2.35 µM | 15.8 µM | 3.02 µM | 13.9 µM | 3.89 µM | 17 µM | 4.43 µM | 17.7 µM | 3.73 µM | 17.5 µM | 3.72 µM | 15.1 µM | 0.437 µM | 4.37 µM
